Test results taken from ChEMBL document CHEMBL1139835, “Novel quinolizidinyl derivatives as antiarrhythmic agents” (J Med Chem, 2007).
The source made the active and inactive calls. The calls are words filed in the database; no cut-off is given here.

Experiments:
[1] = Negative inotropic activity assessed as decrease in developed tension in isolated guinea pig left atrium; format: functional, tissue-based; details: Cavia porcellus, Cardiac atrium
[2] = system: Aorta; assay: Inhibition of calcium-induced contraction of potassium ion depolarized guinea pig aortic strips at 100 uM; format: functional; details: Cavia porcellus
[3] = Negative inotropic activity assessed as decrease in developed tension in isolated guinea pig left atrium at 50 uM relative to control; format: functional, Cavia porcellus, Cardiac atrium; parameters: scale not given: the % may be the effect or the level left
[4] = Activity against alternating current-induced arrhythmia in guinea pig left atrium at 100 uM; format: functional, Cavia porcellus, Cardiac atrium
[5] = Negative chronotropic activity assessed as decrease in atrial rate in isolated guinea pig right atrium at 100 uM relative to control; format: functional, Cavia porcellus, Cardiac atrium; parameters: scale not given: the % may be the effect or the level left
[6] = Activity against alternating current-induced arrhythmia in guinea pig left atrium; format: functional, tissue-based; details: Cavia porcellus, Cardiac atrium
[7] = system: Heart; assay: Intraventricular conduction time in spontaneously beating Langendorff-perfused guinea pig heart at 1 nM; format: functional, Cavia porcellus
[8] = system: Heart; assay: Atrioventricular conduction time in spontaneously beating Langendorff-perfused guinea pig heart at 0.1 uM; format: functional, Cavia porcellus
[9] = system: Heart; assay: Ventricular action potential duration in spontaneously beating Langendorff-perfused guinea pig heart at 1 nM; format: functional, Cavia porcellus
[10] = Negative inotropic activity assessed as decrease in developed tension in isolated guinea pig left atrium at 10 uM relative to control; format: functional, Cavia porcellus, Cardiac atrium; parameters: scale not given: the % may be the effect or the level left
[11] = system: Heart; assay: Ventricular action potential duration in spontaneously beating Langendorff-perfused guinea pig heart at 10 nM; format: functional, Cavia porcellus
[12] = system: Heart; assay: Ventricular action potential duration in spontaneously beating Langendorff-perfused guinea pig heart at 10 uM; format: functional, Cavia porcellus
[13] = system: Heart; assay: Heart rate in spontaneously beating Langendorff-perfused guinea pig heart at 0.1uM; format: functional, Cavia porcellus; parameters: unit: beats/min
[14] = system: Heart; assay: Heart rate in spontaneously beating Langendorff-perfused guinea pig heart at 1 uM; format: functional, Cavia porcellus; parameters: unit not given here
[15] = Activity against alternating current-induced arrhythmia in guinea pig left atrium at 50 uM; format: functional, Cavia porcellus, Cardiac atrium
[16] = system: Heart; assay: Heart rate in spontaneously beating Langendorff-perfused guinea pig heart at 10 uM; format: functional, Cavia porcellus; parameters: unit not given here
[17] = system: Heart; assay: Heart rate in spontaneously beating Langendorff-perfused guinea pig heart at 1 nM; format: functional, Cavia porcellus; parameters: unit not given here
[18] = system: Heart; assay: Intraventricular conduction time in spontaneously beating Langendorff-perfused guinea pig heart at 10 nM; format: functional, Cavia porcellus
[19] = system: Heart; assay: Heart rate in spontaneously beating Langendorff-perfused guinea pig heart at 10 nM; format: functional, Cavia porcellus; parameters: unit not given here
[20] = system: Heart; assay: Atrioventricular conduction time in spontaneously beating Langendorff-perfused guinea pig heart at 10 uM; format: functional, Cavia porcellus
[21] = system: Heart; assay: Atrioventricular conduction time in spontaneously beating Langendorff-perfused guinea pig heart at 10 nM; format: functional, Cavia porcellus
[22] = system: Heart; assay: Intraventricular conduction time in spontaneously beating Langendorff-perfused guinea pig heart at 10 uM; format: functional, Cavia porcellus
[23] = system: Heart; assay: Ventricular action potential duration in spontaneously beating Langendorff-perfused guinea pig heart at 0.1 uM; format: functional, Cavia porcellus
[24] = system: Heart; assay: Ventricular action potential duration in spontaneously beating Langendorff-perfused guinea pig heart at 1 uM; format: functional, Cavia porcellus
[25] = Negative chronotropic activity assessed as decrease in atrial rate in isolated guinea pig right atrium at 50 uM relative to control; format: functional, Cavia porcellus, Cardiac atrium; parameters: scale not given: the % may be the effect or the level left
[26] = system: Heart; assay: Atrioventricular conduction time in spontaneously beating Langendorff-perfused guinea pig heart at 1 uM; format: functional, Cavia porcellus
[27] = system: Heart; assay: Intraventricular conduction time in spontaneously beating Langendorff-perfused guinea pig heart at 0.1 uM; format: functional, Cavia porcellus
[28] = system: Heart; assay: Atrioventricular conduction time in spontaneously beating Langendorff-perfused guinea pig heart at 1 nM; format: functional, Cavia porcellus
[29] = system: Heart; assay: Intraventricular conduction time in spontaneously beating Langendorff-perfused guinea pig heart at 1 uM; format: functional, Cavia porcellus
[30] = system: Aorta; assay: Inhibition of calcium-induced contraction of potassium ion depolarized guinea pig aortic strips at 50 uM; format: functional; details: Cavia porcellus
[31] = Negative inotropic activity assessed as decrease in developed tension in isolated guinea pig left atrium at 1 uM relative to control; format: functional, Cavia porcellus, Cardiac atrium; parameters: scale not given: the % may be the effect or the level left
[32] = tissue or blood; details: Cavia porcellus, Cardiac atrium
[33] = Displacement of [3H]batrachotoxin from sodium channel in rat brain; format: tissue-based
[34] = Positive chronotropic activity in isolated guinea pig right atrium relative to control; format: functional, Cavia porcellus, Cardiac atrium
[35] = organism: Cavia porcellus; assay: Activity against alternating current-induced arrhythmia in guinea pig left atrium at 10 uM; format: functional; details: Cardiac atrium
[36] = Negative inotropic activity assessed as decrease in developed tension in isolated guinea pig left atrium at 100 uM relative to control; format: functional, Cavia porcellus, Cardiac atrium; parameters: scale not given: the % may be the effect or the level left

`CS(=O)(=O)Nc1ccc(C(=O)NC[C@@H]2CCCN3CCCC[C@H]23)cc1` showed an EC50 [1] of 250 nM, an inhibition at 100 µM [2] of 1% and an Activity [3] of 92%. The Activity [4] was 34% and the Activity [5] was 4%.
`CC(=O)Nc1ccc(C(=O)NC[C@@H]2CCCN3CCCC[C@H]23)cc1` showed an EC50 [6] of 470 nM, an Activity [7] of 34 ms and an Activity [8] of 70 ms. The EC50 [1] was 59 nM, the Activity [9] was 170 ms and the Activity [10] was 86%. The Activity [11] was 182 ms, the Activity [12] was 204 ms and the Activity [13] was 170. For the same molecule, the Activity [14] was 166, the Activity [15] was 92% and the Activity [16] was 165. It also gave an Activity [17] of 180, an Activity [18] of 33 ms and an Activity [19] of 175. It also gave an Activity [20] of 75 ms, an inhibition at 100 µM [2] of 3% and an Activity [21] of 65 ms. It also gave an Activity [22] of 33 ms, an Activity [23] of 190 ms and an Activity [24] of 195 ms. It also gave an Activity [25] of 14%, an Activity [26] of 72 ms and an Activity [27] of 32 ms. For the same molecule, the Activity [28] was 62 ms and the Activity [29] was 34 ms.
With `Cc1cc(C(=O)c2ccccc2)cc(C)c1OC[C@H]1CCCN2CCCC[C@H]12` the EC50 [6] was 19900 nM, the EC50 [1] was 160 nM and the inhibition at 50 µM [30] was 38%. It also gave an Activity [15] of 104%, an Activity [31] of 64% and an EC50 [32] of 6630 nM. For the same molecule, the Activity [25] was 75%.
Molecule `Cc1cc(C(=O)c2ccccc2)ccc1NC(=O)C[C@@H]1CCCN2CCCC[C@H]12` has an IC50 [33] of 3700 nM.
For `Cc1cc(NS(C)(=O)=O)cc(C)c1NC(=O)C[C@@H]1CCCN2CCCC[C@H]12`, the Activity [34] was 8%, the EC50 [1] was 310 nM and the inhibition at 100 µM [2] was 24%. For the same molecule, the Activity [35] was “inactive” and the Activity [36] was 86%.
Molecule `Cc1cc([N+](=O)[O-])cc(C)c1OC[C@@H]1CCCN2CCCC[C@H]12` has an EC50 [1] of 8390 nM, an Activity [15] of 27% and an EC50 [32] of 23700 nM. It also gave an inhibition at 100 µM [2] of 16%, an Activity [25] of 66% and an Activity [36] of 91%.
